The term MIC denotes the smallest concentration in the dilution series that meets the test's criterion for growth inhibition.

Holding throughout (assay type): cell-based
The test system of one experiment is fungi. Nature of the experiment: antifungal activity stated in words.
The next experiment has as its system C. neoformans. Nature of the experiment: antifungal screening test of analogs, C. neoformans (CN). The following applies: for IC (25-75%): read-out: Partial inhibition. As for the experimental part:
(§1) The analog compounds were tested for their activity against C. albicans, C. neoformans, A. fumigatus and T. rubrum. Partial inhibition of the fungus of between 25 to 75% was measured along with the total inhibition (MIC) by these anolog compounds. A description of the partial inhibition measurement can be found in R. L. Stiller, et al The Journal of Infectious Diseases, 147, No. 6 (1983). The structure of these analog compounds is as follows. [drawing 15] wherein R is the group identified in table 2.

Another experiment has as its system A. fumigatus. Nature of the experiment: antifungal screening test of analogs, A. fumigatus (AF). The note with it: for IC (25-75%): read-out: Partial inhibition. The method, then:
as §1

A further experiment has as its system T. rubrum. The experiment in a line: antifungal screening test of analogs, T. rubrum (TR). The following applies: for IC (25-75%): read-out: Partial inhibition. The method, then: as §1
The next experiment relates to C. albicans. Nature of the experiment: antifungal screening test of analogs, C. albicans (CA). The following applies: for IC (25-75%): read-out: Partial inhibition. As for the experimental part: as §1

Values after ≈ are worked out from the molar mass of the structure shown. Like-named read-outs stand apart in the source and are kept apart here. Where only a bound is given, the exact number is not on record here.

`C[N+](C)(C)CCOP(=O)([O-])OCCCCCCCCCCCCCCCCCCCCCCOP(=O)([O-])OCC[N+](C)(C)C` [1,22-docosandiol bisphosphocholine ester]: the antifungal activity result in the experiment on fungi is on record as “one of the most active antifungal compounds”.
`CCCCCCCCCCCCCCCC(=O)O[C@H](COC1O[C@H](CO)[C@@H](O)[C@H](O)[C@H]1O)COP(=O)([O-])OCC[N+](C)(C)C` (some centres unmarked) [2-palmitoyl-1-O-glucopyranosyllysolecithin]: in the experiment on fungi, the antifungal activity result is on record as “relatively active antifungal agent similar in activity to L-a-Lysophosphatidyl inositol”.
`CCCCCCCCCC(=O)OC[C@@H](O)COP(=O)([O-])OCC[N+](C)(C)C` [L-a-Lysophosphatidylcholine Decanoyl (C:10)]: the MIC is 500 µg/mL (≈ 1220 µM) with C. neoformans (Cryptococcus neoformans), above 500 µg/mL against A. fumigatus (Aspergillus fumigatus), above 500 µg/mL in the experiment with T. rubrum (Trichophyton rubrum) and above 500 µg/mL with C. albicans (Candida albicans). For the same molecule, the IC (25-75%) with C. neoformans (Cryptococcus neoformans) was 250 µg/mL; in the experiment with A. fumigatus (Aspergillus fumigatus) it was above 500 µg/mL; with T. rubrum (Trichophyton rubrum), above 500 µg/mL; with C. albicans (Candida albicans), 250 µg/mL.
On to `CCCCCCCCCCCCCCCCC(=O)OC[C@@H](O)COP(=O)([O-])OCC[N+](C)(C)C` [L-a-Lysophosphatidylcholine Heptadecanoyl (C17:0)], for which the MIC with C. neoformans (Cryptococcus neoformans, CN, total inhibition, read-out: MIC) is 16 µg/mL (≈ 31.4 µM); in the experiment with A. fumigatus (Aspergillus fumigatus, AF, total inhibition, read-out: MIC), above 1000 µg/mL; in the experiment with T. rubrum (Trichophyton rubrum, TR, total inhibition, read-out: MIC), 63 µg/mL (≈ 124 µM); with C. albicans (Candida albicans, CA, total inhibition, read-out: MIC) it was 63 µg/mL (≈ 124 µM). For the same molecule, the IC (25-75%) with A. fumigatus (Aspergillus fumigatus, AF, partial inhibition of between 25 to 75%) stood at 31 µg/mL; with T. rubrum (Trichophyton rubrum, TR, partial inhibition of between 25 to 75%) it was 31 µg/mL; in the experiment on C. albicans (Candida albicans, CA, partial inhibition of between 25 to 75%), 16 µg/mL.
For the molecule `CCCCCCCCCCCC(=O)OC[C@@H](O)COP(=O)([O-])OCC[N+](C)(C)C` [L-a-Lysophosphatidylcholine Lauroyl (C12:0)], the MIC against C. neoformans (Cryptococcus neoformans) was determined as 125 µg/mL (≈ 284 µM); in the experiment on A. fumigatus (Aspergillus fumigatus), 125 µg/mL (≈ 284 µM); against T. rubrum (Trichophyton rubrum), 250 µg/mL (≈ 569 µM); in the experiment on C. albicans (Candida albicans), 500 µg/mL (≈ 1140 µM). Also, the IC (25-75%) with C. neoformans (Cryptococcus neoformans) is 31 µg/mL; with T. rubrum (Trichophyton rubrum) it was 63 µg/mL.
As for `CCCCCCCCCCCCCC(=O)OC[C@@H](O)COP(=O)([O-])OCC[N+](C)(C)C` [L-a-Lysophosphatidylcholine Myristoyl (C14:0)], the MIC stood at 31 µg/mL (≈ 66.3 µM) in the experiment on C. neoformans (Cryptococcus neoformans), 125 µg/mL (≈ 267 µM) in the experiment with A. fumigatus (Aspergillus fumigatus), 31 µg/mL (≈ 66.3 µM) with T. rubrum (Trichophyton rubrum) and 31 µg/mL (≈ 66.3 µM) against C. albicans (Candida albicans). Moreover, the IC (25-75%) with A. fumigatus (Aspergillus fumigatus) turned out to be 31 µg/mL.
`CCCCCCCC/C=C\CCCCCCCC(=O)OC[C@@H](O)COP(=O)([O-])OCC[N+](C)(C)C` [L-a-Lysophosphatidylcholine Oleoyl (C18:1,[Cis]-9)]: the MIC against C. neoformans (Cryptococcus neoformans) was found to be 31 µg/mL (≈ 59.4 µM); in the experiment on A. fumigatus (Aspergillus fumigatus), 63 µg/mL (≈ 121 µM); against T. rubrum (Trichophyton rubrum) it was 31 µg/mL (≈ 59.4 µM); in the experiment with C. albicans (Candida albicans), 31 µg/mL (≈ 59.4 µM). Also, the IC (25-75%) in the experiment on A. fumigatus (Aspergillus fumigatus) was found to be 31 µg/mL.
As to `CCCCCCCCCCCCCCCC(=O)OC[C@@H](O)COP(=O)([O-])OCC[N+](C)(C)C` [L-a-Lysophosphatidylcholine Palmitoyl (C16:0)], the MIC against C. neoformans (Cryptococcus neoformans) turned out to be 31 µg/mL (≈ 62.5 µM); against A. fumigatus (Aspergillus fumigatus) it was 63 µg/mL (≈ 127 µM); against T. rubrum (Trichophyton rubrum) it was 500 µg/mL (≈ 1010 µM); in the experiment with C. albicans (Candida albicans) it was 31 µg/mL (≈ 62.5 µM). Besides, the IC (25-75%) with A. fumigatus (Aspergillus fumigatus) is 31 µg/mL; in the experiment on T. rubrum (Trichophyton rubrum), 63 µg/mL.
Turning to `CCCCCCCCCCCCCCCCCC(=O)OC[C@@H](O)COP(=O)([O-])OCC[N+](C)(C)C` [L-a-Lysophosphatidylcholine Stearoyl (C18:0)], the MIC in the experiment on C. neoformans (Cryptococcus neoformans), with A. fumigatus (Aspergillus fumigatus), against T. rubrum (Trichophyton rubrum) and with C. albicans (Candida albicans) was above 250 µg/mL each time. For the same molecule, the IC (25-75%) was 31 µg/mL in the experiment with C. neoformans (Cryptococcus neoformans), above 250 µg/mL with A. fumigatus (Aspergillus fumigatus), above 250 µg/mL with T. rubrum (Trichophyton rubrum) and above 250 µg/mL in the experiment with C. albicans (Candida albicans).
Regarding `CCCCCCCC/C=C\CCCCCCCC(=O)OC[C@@H](O)COP(=O)(O)OCCN` [L-a-Lysophosphatidylethanol Amine, Oleoyl (C18:1,[cis]-9)], the MIC against C. neoformans (Cryptococcus neoformans), in the experiment on A. fumigatus (Aspergillus fumigatus), with T. rubrum (Trichophyton rubrum) and against C. albicans (Candida albicans) was above 100 µg/mL each time. Moreover, the IC (25-75%) is 100 µg/mL in the experiment with C. neoformans (Cryptococcus neoformans), above 100 µg/mL in the experiment on A. fumigatus (Aspergillus fumigatus), above 100 µg/mL with T. rubrum (Trichophyton rubrum) and above 100 µg/mL with C. albicans (Candida albicans).
For L-a-Lysophosphatidyl inositol, the Partial inhibition with C. neoformans (CN, partial inhibition of between 25 to 75%) was 100 µg/mL; with T. rubrum (TR, partial inhibition of between 25 to 75%) it was above 100 µg/mL; with C. albicans (CA, partial inhibition of between 25 to 75%), above 100 µg/mL. In addition, the MIC was above 100 µg/mL against C. neoformans (CN, total inhibition); 100 µg/mL with A. fumigatus (AF, total inhibition); above 100 µg/mL with T. rubrum (TR, total inhibition); above 100 µg/mL in the experiment with C. albicans (CA, total inhibition).

The record behind these values is patent US5681829A, “Class of phosphocholine derivatives having antifungal activity” (Shaman Pharmaceuticals, Inc., priority 1995, dated 1997).
